Measurements taken from patent US20210129406A1, “DRUG SOLVATES IN THERMAL PROCESSES TO MAKE SOLID DISPERSIONS AT LOWER PROCESSING TEMPERATURES” (BOARD OF REGENTS, THE UNIVERSITY OF TEXAS SYSTEM, priority 2019, published 2021).

What was measured:
[1] = Solid-state stability of carbamazepine dihydrate (PXRD) at room temperature, 56% relative humidity; type: physicochemical
Protocol: CBZ dihydrate was prepared by suspending CBZ anhydrate in water for 24 hours.

[2] = cited from earlier work

stability of the dihydrate form ([1]; 56% relative humidity at room temperature throughout the whole experiments) | stability of the dihydrate form (PXRD) ([1]; 3 days at room temperature 56% relative humidity) | Compound | pKa [2]
stayed stable | stayed stable | NC(=O)N1c2ccccc2C=Cc2ccccc21 [carbamazepine dihydrate] | 
 |  | NC(=O)N1c2ccccc2C=Cc2ccccc21 [carbamazepine] | 13.4
